Experimental data from publication PMC12254355 (Nature Communications, 2025).
Ends that are not written are not given here.

Columns and labels:
human red blood cells = details: pH 7.4
P. aeruginosa PA14 = details: PA14, 24 h
HEK293T cells = details: for CC50 vs HEK293T cells (source data of Figure 4a): 24 h
E. coli AIC221 = details: AIC221, 24 h
P. aeruginosa PAO1 = details: PAO1, 24 h
E. coli ATCC 11775 = details: ATCC 11775, 24 h
S. aureus ATCC 12600 = details: ATCC 12600, 24 h
K. pneumoniae ATCC 13883 = details: ATCC 13883, 24 h
[1] = system: E. faecium ATCC 700221 - VRE; details: ATCC 700221, 24 h
A. baumannii ATCC 19606 = details: ATCC 19606, 24 h
[2] = system: S. aureus ATCC BAA-1556 - MRSA; details: ATCC BAA-1556, 24 h
[3] = system: E. coli AIC222 (polymyxin resistant; colistin-resistant strain); details: 24 h

| Sequence | HC50 (human red blood cells) | Minimal Inhibitory Concentration, P. aeruginosa PA14 (-) (P. aeruginosa PA14) [µmol/L] | CC50 vs HEK293T cells (HEK293T cells) [µM] | SIcytotoxicity (HEK293T cells) | CC50 vs HEK293T cells (source data of Figure 4a) (HEK293T cells) [µM] | Minimal Inhibitory Concentration, E. coli AIC221 (-) (E. coli AIC221) [µmol/L] | Minimal Inhibitory Concentration, P. aeruginosa PAO1 (-) (P. aeruginosa PAO1) [µmol/L] | Minimal Inhibitory Concentration, E. coli ATCC 11775 (-) (E. coli ATCC 11775) [µmol/L] | Minimal Inhibitory Concentration, S. aureus ATCC 12600 (+) (S. aureus ATCC 12600) [µmol/L] | Minimal Inhibitory Concentration, K. pneumoniae ATCC 13883 (-) (K. pneumoniae ATCC 13883) [µmol/L] | Minimal Inhibitory Concentration, E. faecium ATCC 700221 - VRE (+) [1] [µmol/L] | Minimal Inhibitory Concentration, A. baumannii ATCC 19606 (-) (A. baumannii ATCC 19606) [µmol/L] | Minimal Inhibitory Concentration, S. aureus ATCC BAA-1556 - MRSA (+) [2] [µmol/L] | Minimal Inhibitory Concentration, E. coli AIC222 (-) [3] [µmol/L] |
| --- | --- | --- | --- | --- | --- | --- | --- | --- | --- | --- | --- | --- | --- | --- |
| KLLKIGLKSFARVLKKVL [UniprotKB-1] | 34.9 | 8 | 10 | 2.5 | 10.13 | 4 | 8 | 8 | 16 | – | – | – | – | – |
| KWLKAMKSIAKFIAKKQMKKHL [Arachnoserver-32] | 19.2 | 16 | 8 | 1.9 | 7.568 | 64 | 8 | – | – | 16 | 4 | – | – | – |
| RKFNWGKLFKSAKKLYKTGKKLSKNKNVRKALKFGK [Arachnoserver-7] | 7.0 | 4 | 7 | 6.8 | 6.812 | 1 | 8 | 8 | – | 64 | 8 | 8 | – | – |
| KLSGISKVLRAIAKFFK [Arachnoserver-28] | 38.2 | 8 | 6 | 0.8 | 6.347 | 32 | 32 | 64 | 32 | 32 | 8 | 32 | 32 | – |
| LKLKSILGKLGVIL [UniprotKB-4] | 3.938e+054 | – | 10 | 0.7 | 10.49 | – | – | – | – | 64 | – | 64 | – | – |
| KIKWLKAMKSIAKFIAKK [Arachnoserver-5] | 46.7 | 2 | – | 7.0 | 13.96 | 2 | 4 | 2 | – | 2 | 8 | 8 | – | – |
| RGLAKLLKIGLKSFARVLKK [Arachnoserver-12] | 40.1 | 8 | 8 | 2.1 | 8.419 | 4 | 16 | 16 | 64 | 32 | 8 | 32 | 64 | – |
| KIKWFKTMKSLAKFLAK [Arachnoserver-33] | 144.1 | 8 | – | 8.0 | – | 4 | 32 | 8 | – | 4 | 32 | 8 | – | – |
| SKKQIRLYLLKYYGKKLFKKRPK [Arachnoserver-19] | 163.3 | 16 | – | 2.1 | 16.68 | 32 | 16 | – | – | – | 8 | – | – | 32 |
| KFSVFSKILRSIAKVF [Arachnoserver-18] | 53.5 | 16 | – | 3.1 | 12.34 | 4 | 32 | 4 | 16 | – | 8 | 8 | 16 | – |
| KYRRGVSPWLKKELVRLHNNLRSKVAGGK [Arachnoserver-31] | 1392.0 | 64 | 13 | 3.2 | 12.67 | 4 | – | 8 | – | 4 | 16 | – | – | – |
| KLLKIGLKSFARVLKKVL [Arachnoserver-1] | 82.7 | 8 | – | 6.6 | 26.22 | 4 | – | 8 | 16 | 8 | 16 | 16 | 16 | – |
| KLKKLRKWIYRIV [UniprotKB-8] | 636.4 | – | – | 3.5 | 27.64 | – | – | 16 | – | 64 | 16 | 32 | – | – |
| RRVKRFKKFFRKLKKSVKKRAKEFFK [ISOB-1] | 2001.0 | 8 | – | 28.9 | – | 8 | 4 | 16 | 64 | – | 16 | 64 | – | – |
| KRLRAKMLNSKFIKLIKR [Conoserver-1] | 1.085e+083 | 32 | – | 5.2 | – | 16 | 32 | – | – | – | 32 | – | 32 | – |
| KNKRFIRNLRSNLYQKIIKSTKSLL [UniprotKB-14] | 7.733e+045 | 32 | – | 5.7 | 45.94 | 8 | 32 | 32 | – | 32 | 32 | – | – | – |
| KNKRFIRNLRSNLYQKIIKSTKSLL [Arachnoserver-9] | 4947.0 | 16 | – | 2.9 | 23.56 | 8 | 16 | 16 | – | 16 | 16 | 32 | – | – |
